For 29 compounds, IC50 results are on record in ChEMBL document CHEMBL5360622, “Leucettinibs, a Class of DYRK/CLK Kinase Inhibitors Inspired by the Marine Sponge Natural Product Leucettamine B” (J Med Chem, 2023).

In experiment [1] the target is T1, Dual specificity tyrosine-phosphorylation-regulated kinase 4 (Homo sapiens, UniProt Q9NR20).
T1 sequence (Q9NR20 whole entry): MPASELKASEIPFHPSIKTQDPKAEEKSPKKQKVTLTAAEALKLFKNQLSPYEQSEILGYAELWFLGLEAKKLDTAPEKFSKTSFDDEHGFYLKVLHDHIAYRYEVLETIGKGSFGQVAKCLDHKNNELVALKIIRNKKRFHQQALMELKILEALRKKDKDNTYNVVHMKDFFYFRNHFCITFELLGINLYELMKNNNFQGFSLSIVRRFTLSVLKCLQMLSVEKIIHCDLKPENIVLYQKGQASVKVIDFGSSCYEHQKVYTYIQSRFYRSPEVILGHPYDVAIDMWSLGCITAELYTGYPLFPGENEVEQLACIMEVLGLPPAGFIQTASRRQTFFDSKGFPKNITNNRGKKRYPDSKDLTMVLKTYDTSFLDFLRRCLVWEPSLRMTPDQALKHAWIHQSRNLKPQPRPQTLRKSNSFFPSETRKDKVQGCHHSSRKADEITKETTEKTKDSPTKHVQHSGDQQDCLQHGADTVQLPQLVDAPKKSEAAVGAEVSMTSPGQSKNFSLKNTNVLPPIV

For experiment [2], the target named is Cyclin-dependent kinase 5/CDK5 activator 1 (Homo sapiens, UniProt Q00535). It is filed as cell-based, Sf9.
Cyclin-dependent kinase 5/CDK5 activator 1, sequence (Q00535 whole entry): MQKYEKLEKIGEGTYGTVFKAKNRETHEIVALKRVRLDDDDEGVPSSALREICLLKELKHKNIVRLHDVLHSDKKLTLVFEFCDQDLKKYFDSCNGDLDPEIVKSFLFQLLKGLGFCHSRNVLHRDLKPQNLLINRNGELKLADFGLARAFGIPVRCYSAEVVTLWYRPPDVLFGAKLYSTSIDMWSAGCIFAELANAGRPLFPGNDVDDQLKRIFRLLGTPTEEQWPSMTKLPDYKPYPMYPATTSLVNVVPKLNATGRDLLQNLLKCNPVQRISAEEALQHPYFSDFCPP
Cyclin-dependent kinase 5/CDK5 activator 1, sequence (Q15078 whole entry, further chain): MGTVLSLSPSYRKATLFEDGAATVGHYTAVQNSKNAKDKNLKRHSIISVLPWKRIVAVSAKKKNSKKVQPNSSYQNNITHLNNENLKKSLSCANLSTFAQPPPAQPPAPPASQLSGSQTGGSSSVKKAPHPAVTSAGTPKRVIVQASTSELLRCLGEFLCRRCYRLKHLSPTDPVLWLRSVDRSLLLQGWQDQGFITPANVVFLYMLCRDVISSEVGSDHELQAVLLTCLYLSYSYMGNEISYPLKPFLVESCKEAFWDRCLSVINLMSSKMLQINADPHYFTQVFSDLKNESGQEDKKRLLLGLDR
Experiment [3] deals with Dual specificity protein kinase CLK3 (Homo sapiens, UniProt P49761). It is filed as cell-based, Sf9.
Dual specificity protein kinase CLK3, sequence (P49761 whole entry): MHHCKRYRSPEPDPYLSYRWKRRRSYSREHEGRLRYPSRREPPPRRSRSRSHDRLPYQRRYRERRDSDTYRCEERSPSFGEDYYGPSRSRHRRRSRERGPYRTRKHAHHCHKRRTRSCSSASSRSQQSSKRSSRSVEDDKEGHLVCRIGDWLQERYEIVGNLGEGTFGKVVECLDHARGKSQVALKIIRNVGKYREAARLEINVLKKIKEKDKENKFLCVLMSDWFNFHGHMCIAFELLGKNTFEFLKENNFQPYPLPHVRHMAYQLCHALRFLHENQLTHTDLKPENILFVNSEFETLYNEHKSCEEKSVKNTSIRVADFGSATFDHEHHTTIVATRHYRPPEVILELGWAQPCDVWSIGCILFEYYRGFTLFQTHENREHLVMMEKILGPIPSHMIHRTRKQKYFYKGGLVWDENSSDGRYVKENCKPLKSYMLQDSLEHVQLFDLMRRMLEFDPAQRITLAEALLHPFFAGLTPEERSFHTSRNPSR
Experiment [4] addresses Glycogen synthase kinase-3 beta (Homo sapiens, UniProt P49841). It is filed as cell-based, Sf9.
The target in experiment [5] is Casein kinase I isoform epsilon (Homo sapiens, UniProt P49674).
Casein kinase I isoform epsilon, sequence (P49674 whole entry, canonical isoform): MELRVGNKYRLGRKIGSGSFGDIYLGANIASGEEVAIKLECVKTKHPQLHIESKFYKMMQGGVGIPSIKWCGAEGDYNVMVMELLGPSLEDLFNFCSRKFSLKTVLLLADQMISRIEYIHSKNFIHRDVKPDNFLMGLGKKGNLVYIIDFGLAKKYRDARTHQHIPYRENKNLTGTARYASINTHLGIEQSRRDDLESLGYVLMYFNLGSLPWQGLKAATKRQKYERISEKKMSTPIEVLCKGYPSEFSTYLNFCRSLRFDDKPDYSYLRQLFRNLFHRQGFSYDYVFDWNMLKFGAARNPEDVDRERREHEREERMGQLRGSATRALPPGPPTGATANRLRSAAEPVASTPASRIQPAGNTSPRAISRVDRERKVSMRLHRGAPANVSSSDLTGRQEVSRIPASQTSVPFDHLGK
In experiment [6] the target is Dual specificity protein kinase CLK2 (Homo sapiens, UniProt P49760).
Dual specificity protein kinase CLK2, sequence (P49760 whole entry): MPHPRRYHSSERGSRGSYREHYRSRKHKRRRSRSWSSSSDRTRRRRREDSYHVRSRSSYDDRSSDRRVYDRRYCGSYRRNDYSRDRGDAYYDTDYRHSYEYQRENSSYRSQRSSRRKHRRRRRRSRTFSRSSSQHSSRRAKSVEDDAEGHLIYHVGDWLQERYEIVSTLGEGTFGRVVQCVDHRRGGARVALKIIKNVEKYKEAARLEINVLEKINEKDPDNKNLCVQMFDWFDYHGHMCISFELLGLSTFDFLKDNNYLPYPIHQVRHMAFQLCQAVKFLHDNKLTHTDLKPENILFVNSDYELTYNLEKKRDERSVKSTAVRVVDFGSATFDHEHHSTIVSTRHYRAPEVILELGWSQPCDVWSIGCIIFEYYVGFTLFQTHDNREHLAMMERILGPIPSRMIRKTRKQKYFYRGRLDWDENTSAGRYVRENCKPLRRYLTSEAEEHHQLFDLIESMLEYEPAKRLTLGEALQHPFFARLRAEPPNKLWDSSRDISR
Experiment [7] concerns the target T2, Dual specificity tyrosine-phosphorylation-regulated kinase 2 (Homo sapiens, UniProt Q92630).
T2 sequence (Q92630 whole entry): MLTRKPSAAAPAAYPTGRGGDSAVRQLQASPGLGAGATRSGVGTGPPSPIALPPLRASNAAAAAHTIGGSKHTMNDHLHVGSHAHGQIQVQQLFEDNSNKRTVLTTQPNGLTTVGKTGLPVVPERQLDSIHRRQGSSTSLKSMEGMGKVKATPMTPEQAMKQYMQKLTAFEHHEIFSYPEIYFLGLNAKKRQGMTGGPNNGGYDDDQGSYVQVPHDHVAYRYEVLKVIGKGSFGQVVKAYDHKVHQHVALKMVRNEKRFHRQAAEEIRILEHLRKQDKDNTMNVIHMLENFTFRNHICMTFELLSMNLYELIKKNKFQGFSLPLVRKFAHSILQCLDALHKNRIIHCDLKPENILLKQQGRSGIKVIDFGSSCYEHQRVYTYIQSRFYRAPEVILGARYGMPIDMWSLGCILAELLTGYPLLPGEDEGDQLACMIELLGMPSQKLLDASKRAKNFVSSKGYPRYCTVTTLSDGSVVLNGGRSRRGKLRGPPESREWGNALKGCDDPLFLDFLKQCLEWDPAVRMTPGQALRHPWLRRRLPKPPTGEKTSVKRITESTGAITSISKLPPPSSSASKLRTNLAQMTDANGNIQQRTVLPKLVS

Glycogen synthase kinase-3 beta, sequence (P49841 whole entry, canonical isoform): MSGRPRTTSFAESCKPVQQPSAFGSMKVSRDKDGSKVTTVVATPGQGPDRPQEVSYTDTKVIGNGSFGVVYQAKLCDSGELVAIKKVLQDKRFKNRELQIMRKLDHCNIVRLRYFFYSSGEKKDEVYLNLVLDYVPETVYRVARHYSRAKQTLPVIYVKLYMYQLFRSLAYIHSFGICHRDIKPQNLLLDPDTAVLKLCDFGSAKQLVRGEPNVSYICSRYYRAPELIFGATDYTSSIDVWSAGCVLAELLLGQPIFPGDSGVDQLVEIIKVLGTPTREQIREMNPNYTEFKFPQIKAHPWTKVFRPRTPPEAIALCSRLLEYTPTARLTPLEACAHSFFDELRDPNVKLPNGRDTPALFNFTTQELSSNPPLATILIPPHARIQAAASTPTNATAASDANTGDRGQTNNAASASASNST

In the case of `CS(=O)(=O)NC12CC3CC(CC(NC4=N/C(=C\c5ccc6ncsc6c5)C(=O)N4)(C3)C1)C2`, the IC50 in experiment [1] was determined as 233 nM; in experiment [2], 1540 nM; in experiment [3] it was 1020 nM; in experiment [4] it was 511 nM; in experiment [5], 5810 nM.
Turning to `O=C1NC(NC2C3CC4CC(C3)CC2C4)=N/C1=C\c1ccc2ncsc2c1` (stereo not drawn), the IC50 in experiment [6] was 19 nM; in experiment [1] it was 127 nM; in experiment [2] it was greater than 10000 nM; in experiment [7] it was 573 nM; in experiment [3] it was 1210 nM; in experiment [4], 4760 nM. Further, the IC50 in experiment [5] was greater than 10000 nM.
With `COC[C@@H](NC1=N/C(=C\c2ccc3ncsc3c2)C(=O)N1)c1ccccc1`, the IC50 in experiment [6] is 616 nM; in experiment [1] it was 3790 nM; in experiment [2] it was greater than 10000 nM; in experiment [7] it was 260 nM; in experiment [3], 450 nM; in experiment [4] it was 5600 nM. In experiment [5], this compound yielded an IC50 greater than 10000 nM.
As for `COC12CC3CC(CC(NC4=N/C(=C\c5ccc6ncsc6c5)C(=O)N4)(C3)C1)C2`, the half-inhibitory concentration (IC50) in experiment [1] was determined as 284 nM; in experiment [2] it was 304 nM; in experiment [3], 284 nM; in experiment [4], 455 nM; in experiment [5] it was 1760 nM.
Consider `O=C1NC(NC23CC4CC(CC(F)(C4)C2)C3)=N/C1=C\c1ccc2ncsc2c1`, for which the IC50 in experiment [2] amounted to 146 nM; in experiment [3] it was 194 nM; in experiment [4], 169 nM; in experiment [5] it was 612 nM.
Turning to `O=C1NC(NCc2cccnc2)=N/C1=C\c1ccc2ncsc2c1`, the half-inhibitory concentration (IC50) in experiment [6] is 53 nM; in experiment [1], 1380 nM; in experiment [2], greater than 10000 nM; in experiment [7], 2010 nM; in experiment [3], 716 nM; in experiment [4], 2840 nM. The compound further gave an IC50 in experiment [5] greater than 10000 nM.
Take `NC[C@@H](NC1=N/C(=C\c2ccc3ncsc3c2)C(=O)N1)c1ccccc1`: the IC50 in experiment [2] turned out to be 2520 nM; in experiment [4] it was 102 nM.
Consider `O=C1NC(N[C@H]2CCOC2)=N/C1=C\c1ccc2ncsc2c1`, for which the IC50 in experiment [6] is 398 nM; in experiment [1], 1040 nM; in experiment [2] it was greater than 10000 nM; in experiment [3], 405 nM; in experiment [4], 6570 nM; in experiment [5], greater than 10000 nM.
In the case of `O=C1NC(NC23CC4CC(CC(NC(=O)C5CC5)(C4)C2)C3)=N/C1=C\c1ccc2ncsc2c1`, the IC50 was determined as 270 nM in experiment [1]; 1450 nM in experiment [2]; 658 nM in experiment [3]; 366 nM in experiment [4]; 2270 nM in experiment [5].
Take `NC[C@H](NC1=N/C(=C\c2ccc3ncsc3c2)C(=O)N1)c1ccccc1`: the results for the concentration for half-maximal inhibition (IC50) in experiment [2] and in experiment [4] were 2340 nM and 1110 nM, respectively.
As for `O=C1NC(N[C@H]2CC[C@H](O)CC2)=N/C1=C\c1ccc2ncsc2c1`, the IC50 was determined as 98 nM in experiment [6]; 1770 nM in experiment [1]; 4950 nM in experiment [2]; 625 nM in experiment [7]; 392 nM in experiment [3]; 9620 nM in experiment [4]. In experiment [5], this compound yielded an IC50 greater than 10000 nM.
Consider `CC[C@@H](CO)NC1=N/C(=C\c2ccc3ncsc3c2)C(=O)N1`, for which the IC50 was 474 nM in experiment [6]; 3160 nM in experiment [1]; greater than 10000 nM in experiment [2]; 1730 nM in experiment [7]; 1600 nM in experiment [3]; greater than 10000 nM in experiment [4]. In experiment [5], this compound gave an IC50 greater than 10000 nM.
As to `CC(=O)NC12CC3CC(C1)CC(NC1=N/C(=C\c4ccc5ncsc5c4)C(=O)N1)(C3)C2`, the IC50 in experiment [1] turned out to be 263 nM; in experiment [2], 610 nM; in experiment [3], 610 nM; in experiment [4], 663 nM; in experiment [5] it was 1200 nM.
On to `CN(C)C12CC3CC(CC(NC4=N/C(=C\c5ccc6ncsc6c5)C(=O)N4)(C3)C1)C2`, for which the IC50 in experiment [1] came to 411 nM; in experiment [2] it was 5010 nM; in experiment [3] it was 1800 nM; in experiment [4], 1330 nM; in experiment [5], 1480 nM.
With `CN1CCN(c2ncc(NC3=N/C(=C\c4ccc5ncsc5c4)C(=O)N3)cn2)CC1`, the IC50 in experiment [6] was 143 nM; in experiment [1], 294 nM; in experiment [2] it was greater than 10000 nM; in experiment [7], 175 nM; in experiment [3] it was 1920 nM; in experiment [4], 1190 nM. Moreover, the IC50 in experiment [5] is greater than 10000 nM.
Regarding `COc1nc(C)ccc1NC1=N/C(=C\c2ccc3ncsc3c2)C(=O)N1`, the IC50 is greater than 10000 nM in experiment [2]; 1870 nM in experiment [7]; greater than 10000 nM in experiment [3]; 8970 nM in experiment [4]; greater than 10000 nM in experiment [5].
In the case of `O=C1NC(NC23CC4CC(CC2C4)C3)=N/C1=C\c1ccc2ncsc2c1`, the IC50 worked out at 3210 nM in experiment [2], 114 nM in experiment [3], 855 nM in experiment [4] and 2430 nM in experiment [5].
In the case of `O=C1NC(N[C@@H]2CCC[C@H]2O)=N/C1=C\c1ccc2ncsc2c1` (racemic), the IC50 was 553 nM in experiment [1]; greater than 10000 nM in experiment [2]; 472 nM in experiment [7]; 224 nM in experiment [3]; greater than 10000 nM in experiment [4]; greater than 10000 nM in experiment [5].
On to `O=C1NC(NCC23CC4CC(CC(C4)C2)C3)=N/C1=C\c1ccc2ncsc2c1`, for which the IC50 in experiment [6] was 37 nM; in experiment [1] it was 3700 nM; in experiment [2], greater than 10000 nM; in experiment [7] it was greater than 10000 nM; in experiment [3], 1480 nM; in experiment [4], greater than 10000 nM.
As for `CNCC(NC1=N/C(=C\c2ccc3ncsc3c2)C(=O)N1)c1ccccc1` (racemic), the IC50 is 30 nM in experiment [6]; 274 nM in experiment [1]; 2010 nM in experiment [2]; 227 nM in experiment [4]; 6350 nM in experiment [5].
Consider `O=C1NC(Nc2ccc(F)cc2)=N/C1=C\c1ccc2ncsc2c1`, for which the IC50 in experiment [6] was 407 nM; in experiment [2], greater than 10000 nM; in experiment [7] it was 743 nM; in experiment [3], 1820 nM; in experiment [4], greater than 10000 nM; in experiment [5], greater than 10000 nM.
Consider `O=C1NC(NC2CCC(F)(F)CC2)=N/C1=C\c1ccc2ncsc2c1`, for which the IC50 in experiment [1] is 1970 nM; in experiment [2], greater than 10000 nM; in experiment [7], 455 nM; in experiment [3], 467 nM; in experiment [4], greater than 10000 nM; in experiment [5], greater than 10000 nM.
Turning to `O=C1NC(NC2CCCCC(F)(F)C2)=N/C1=C\c1ccc2ncsc2c1` (racemic), the IC50 was determined as 174 nM in experiment [1], 602 nM in experiment [2], 1360 nM in experiment [4] and 420 nM in experiment [5].
With `NCC(NC1=N/C(=C\c2ccc3ncsc3c2)C(=O)N1)c1ccccc1` (stereo not drawn), the figures for the IC50 in experiment [2] and in experiment [4] were 943 nM and 616 nM, respectively.
As to `O=C1NC(N[C@@H]2CCC[C@@H]2O)=N/C1=C\c1ccc2ncsc2c1` (racemic), the IC50 in experiment [1] was 448 nM; in experiment [2], greater than 10000 nM; in experiment [7], 1210 nM; in experiment [3], 537 nM; in experiment [4] it was greater than 10000 nM; in experiment [5], greater than 10000 nM.
Turning to `O=C1NC(Nc2cccnc2)=N/C1=C\c1ccc2ncsc2c1`, the IC50 is 84 nM in experiment [6]; 1330 nM in experiment [1]; greater than 10000 nM in experiment [2]; 201 nM in experiment [3]; greater than 10000 nM in experiment [4]; greater than 10000 nM in experiment [5].
For the compound `O=C1NC(N[C@@H]2CCOC2)=N/C1=C\c1ccc2ncsc2c1`, the IC50 in experiment [6] is 404 nM; in experiment [1], 2780 nM; in experiment [2], greater than 10000 nM; in experiment [3], 747 nM; in experiment [4], greater than 10000 nM; in experiment [5] it was greater than 10000 nM.
Take `CN1CCN(c2ccc(NC3=N/C(=C\c4ccc5ncsc5c4)C(=O)N3)cc2)CC1`: the IC50 in experiment [6] was 28 nM; in experiment [1] it was 244 nM; in experiment [2], greater than 10000 nM; in experiment [3] it was 1060 nM; in experiment [4], 999 nM; in experiment [5] it was 3430 nM.
For `O=C1NC(NC23CC4CC(CC(O)(C4)C2)C3)=N/C1=C\c1ccc2ncsc2c1`, the IC50 in experiment [2] is 332 nM; in experiment [3], 215 nM; in experiment [4], 317 nM; in experiment [5] it was 1100 nM.
